Molecular target: Human O-GlcNAcase (His-Tagged hOGA) (Homo sapiens (Human), UniProt O60502)
Assay: Human O-GlcNAcase enzyme inhibition assay (FL-GlcNAc fluorescence)
Format: biochemical
Conditions: Enzymatic OGA IC50 (M), His-Tagged hOGA 20 nM, FL-GlcNAc 10 μM, 60 min at room temperature, pH 6.5
Description: Then, 20 nM of His-Tagged hOGA and 10 μM of FL-GlcNAc (Fluorescein mono-beta-D-(2-deoxy-2-N-acetyl) glucopyranoside; Marker Gene Technologies Inc, M1485) were added to the 384-well plate for a final volume of 20 μl.

Human O-GlcNAcase (His-Tagged hOGA), sequence (O60502 whole entry): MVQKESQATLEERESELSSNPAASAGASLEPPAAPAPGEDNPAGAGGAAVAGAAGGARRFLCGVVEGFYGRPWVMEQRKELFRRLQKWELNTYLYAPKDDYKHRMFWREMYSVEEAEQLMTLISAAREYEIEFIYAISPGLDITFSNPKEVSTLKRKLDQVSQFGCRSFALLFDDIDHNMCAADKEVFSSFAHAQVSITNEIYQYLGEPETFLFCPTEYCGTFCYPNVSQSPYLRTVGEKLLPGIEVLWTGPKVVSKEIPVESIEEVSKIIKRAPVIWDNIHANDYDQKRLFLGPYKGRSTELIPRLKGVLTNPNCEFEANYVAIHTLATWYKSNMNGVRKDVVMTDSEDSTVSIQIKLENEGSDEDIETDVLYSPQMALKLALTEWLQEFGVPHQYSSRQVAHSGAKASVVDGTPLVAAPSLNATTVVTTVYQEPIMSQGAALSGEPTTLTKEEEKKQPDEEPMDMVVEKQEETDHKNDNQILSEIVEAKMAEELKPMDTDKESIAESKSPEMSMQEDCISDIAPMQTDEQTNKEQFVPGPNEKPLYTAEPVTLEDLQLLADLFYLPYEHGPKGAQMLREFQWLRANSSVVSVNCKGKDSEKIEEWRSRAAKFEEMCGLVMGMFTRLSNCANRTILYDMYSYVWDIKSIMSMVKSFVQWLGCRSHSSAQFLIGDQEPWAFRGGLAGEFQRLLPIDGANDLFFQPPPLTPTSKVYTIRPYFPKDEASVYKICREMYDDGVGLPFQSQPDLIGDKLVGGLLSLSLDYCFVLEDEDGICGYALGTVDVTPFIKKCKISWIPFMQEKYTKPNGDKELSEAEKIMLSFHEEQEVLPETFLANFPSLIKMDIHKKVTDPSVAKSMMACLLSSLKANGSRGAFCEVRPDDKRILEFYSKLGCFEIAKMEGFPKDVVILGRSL

Q: For `CC(=O)Nc1nc2c(s1)CN(C(C)c1ccc3c(c1)OCO3)CC2` (racemic) [Example 3, N-(5-(1-(benzo[d][1,3]dioxol-5-yl)ethyl)-4,5,6,7-tetrahydrothiazolo[5,4-c]pyridin-2-yl)acetamide], which IC50 is on record?
A: The IC50 was 2e-07 to 1e-06 M.

Q: For `CC(c1ccc2c(c1)OCC2)N1CCn2nc(-c3ccc(S(C)(=O)=O)cc3)nc2C1` (racemic) [Example 17], which IC50 is on record?
A: Its IC50 is 1e-06 to 1e-05 M.

Same assay, conditions: His-Tagged hOGA 20 nM, FL-GlcNAc 10 μM, 60 min at room temperature, pH 6.5; read-out: Enzymatic OGA IC50

Q: How did the IC50 turn out when “5-(1-(2,3-dihydrobenzofuran-6-yl)ethyl)-1-(pyridin-2-yl)-4,5,6,7-tetrahydro-1H-pyrazolo[4,3-c]pyridine [Example 9]” was run?
A: The IC50 was 5e-08 to 2e-07 M.

Q: For “5-(1-(2,3-dihydrobenzofuran-6-yl)ethyl)-2-(pyridin-2-yl)-4,5,6,7-tetrahydro-2H-pyrazolo[4,3-c]pyridine [Example 10]”, which IC50 is on record?
A: Its IC50 is 5e-08 to 2e-07 M.

Q: Which IC50 does the source give for `CC(=O)Nc1ncc2c(n1)CCN(C(C)c1ccc3c(c1)OCO3)C2` (racemic) [Example 1, N-(6-(1-(benzo[d][1,3]dioxol-5-yl)ethyl)-5,6,7,8-tetrahydropyrido[4,3-d]pyrimidin-2-yl)acetamide] here?
A: Its IC50 is 1e-06 to 1e-05 M.

Q: How did the IC50 turn out when `CC(c1ccc2c(c1)OCO2)N1CCc2ccccc2C1` (racemic) [Example 2, 2-(1-(benzo[d][1,3]dioxol-5-yl)ethyl)-1,2,3,4-tetrahydroisoquinoline] was run?
A: Its IC50 is 2e-07 to 1e-06 M.

Q: Which IC50 does the source give for `CC(c1ccc2c(c1)OCC2)N1CCc2n[nH]cc2C1` (racemic) [Example 4, 5-(1-(2,3-dihydrobenzofuran-6-yl)ethyl)-4,5,6,7-tetrahydro-2H-pyrazolo[4,3-c]pyridine] here?
A: The IC50 was 5e-08 to 2e-07 M.

Q: Which IC50 does the source give for `CC(c1ccc2c(c1)OCC2)N1CCc2c(cnn2-c2ccc(F)cc2)C1` (racemic) [Example 5, 5-(1-(2,3-dihydrobenzofuran-6-yl)ethyl)-1-(4-fluorophenyl)-4,5,6,7-tetrahydro-1H-pyrazolo[4,3-c]pyridine] here?
A: Its IC50 is 5e-08 to 2e-07 M.

Q: With `CC(c1ccc2c(c1)OCC2)N1CCc2nn(-c3ccc(F)cc3)cc2C1` (racemic) [Example 6, 5-(1-(2,3-dihydrobenzofuran-6-yl)ethyl)-2-(4-fluorophenyl)-4,5,6,7-tetrahydro-2H-pyrazolo[4,3-c]pyridine] as the compound, how does the IC50 read?
A: The IC50 was 5e-08 to 2e-07 M.

Q: `CC(c1ccc2c(c1)OCC2)N1CCc2c(cnn2-c2ccccc2)C1` (racemic) [Example 7, 5-(1-(2,3-dihydrobenzofuran-6-yl)ethyl)-1-phenyl-4,5,6,7-tetrahydro-1H-pyrazolo[4,3-c]pyridine] was tested. Which IC50 did it give?
A: The IC50 was 5e-08 to 2e-07 M.

Q: With `CC(c1ccc2c(c1)OCC2)N1CCc2nn(-c3ccccc3)cc2C1` (racemic) [Example 8, 5-(1-(2,3-dihydrobenzofuran-6-yl)ethyl)-2-phenyl-4,5,6,7-tetrahydro-2H-pyrazolo[4,3-c]pyridine] as the compound, how does the IC50 read?
A: The IC50 was 5e-08 to 2e-07 M.

Q: With `CC(c1ccc2c(c1)OCC2)N1CCc2nc(-c3ccc(F)cc3)sc2C1` (racemic) [Example 11, 5-(1-(2,3-dihydrobenzofuran-6-yl)ethyl)-2-(4-fluorophenyl)-4,5,6,7-tetrahydrothiazolo[5,4-c]pyridine] as the compound, how does the IC50 read?
A: The IC50 was 2e-07 to 1e-06 M.

Q: How did the IC50 turn out when `CC(c1ccc2c(c1)OCC2)N1CCc2c(cnn2-c2cncnc2)C1` (racemic) [Example 14, 5-(1-(2,3-dihydrobenzofuran-6-yl)ethyl)-1-(pyrimidin-5-yl)-4,5,6,7-tetrahydro-1H-pyrazolo[4,3-c]pyridine] was run?
A: The IC50 was 2e-07 to 1e-06 M.

Q: Which IC50 does the source give for `CC(c1ccc2c(c1)OCC2)N1CCn2nc(-c3cccnc3)nc2C1` (racemic) [Example 18, 7-(1-(2,3-dihydrobenzofuran-6-yl)ethyl)-2-(pyridin-3-yl)-5,6,7,8-tetrahydro-[1,2,4]triazolo[1,5-a]pyrazine] here?
A: Its IC50 is 1e-06 to 1e-05 M.

Q: Which IC50 does the source give for `CC(c1ccc2c(c1)OCC2)N1CCn2nc(Nc3ccc(C#N)cn3)nc2C1` (racemic) [Example 19, 6-((7-(1-(2,3-dihydrobenzofuran-6-yl)ethyl)-5,6,7,8-tetrahydro-[1,2,4]triazolo[1,5-a]pyrazin-2-yl)amino)nicotinonitrile] here?
A: Its IC50 is 1e-06 to 1e-05 M.

Q: `CC(c1ccc2c(c1)OCC2)N1CCc2nn(Cc3ncccn3)cc2C1` (racemic) [Example 20, 5-(1-(2,3-dihydrobenzofuran-6-yl)ethyl)-2-(pyrimidin-2-ylmethyl)-4,5,6,7-tetrahydro-2H-pyrazolo[4,3-c]pyridine] was tested. Which IC50 did it give?
A: The IC50 was 2e-07 to 1e-06 M.

Q: `CC(c1ccc2c(c1)OCC2)N1CCc2c(cnn2Cc2ncccn2)C1` (racemic) [Example 21, 5-(1-(2,3-dihydrobenzofuran-6-yl)ethyl)-1-(pyrimidin-2-ylmethyl)-4,5,6,7-tetrahydro-1H-pyrazolo[4,3-c]pyridine] was tested. Which IC50 did it give?
A: Its IC50 is 2e-07 to 1e-06 M.

Q: Which IC50 does the source give for `CC(c1ccc2c(c1)OCC2)N1CCc2nn(-c3ccccc3)cc2C1` (single isomer, unassigned) [Example 12] here?
A: The IC50 was 1e-06 to 1e-05 M.

Q: With `CC(c1ccc2c(c1)OCC2)N1CCc2nn(-c3ccccc3)cc2C1` (single isomer, unassigned) [Example 13] as the compound, how does the IC50 read?
A: The IC50 was 5e-08 to 2e-07 M.

Q: With `CC(c1ccc2c(c1)OCC2)N1CCc2nn(C3CCOCC3)cc2C1` (centres unmarked) [Example 15, 5-(1-(2,3-dihydrobenzofuran-6-yl)ethyl)-1-(tetrahydro-2H-pyran-4-yl)-4,5,6,7-tetrahydro-1H-pyrazolo[4,3-c]pyridine or 5-(1-(2,3-dihydrobenzofuran-6-yl)ethyl)-2-(tetrahydro-2H-pyran-4-yl)-4,5,6,7-tetrahydro-2H-pyrazolo[4,3-c]pyridine] as the compound, how does the IC50 read?
A: The IC50 was 1e-06 to 1e-05 M.

Source: patent publication US11458140B2, “Annulated glycosidase inhibitors” (Asceneuron SA, priority 2017, dated 2022)
